Data as given in patent US20140263071A1, “METHOD FOR COLLECTING METALS” (CHEMEC OY AB, priority 2011, published 2014).

Key:
[1] = Effect of contact time on expulsion percent, Pb^2+ and Hg^2+ spiked TS 5, 1a 100 mg/100 ml (Example 13)
Description: A test solution containing 1-15 mg/l of Al^3+, Fe^2/3+, Mg^2+, Mn^2+, Ni^2+ and Zn^2+; 0.1-0.9 mg/l of Ca^2+ and Na^+; and trace amount of other Cr^3+, Co^2+, Cu^2+, Eu^3+, La^3+, Nd^3+, Y^3+, UO2^2+ and Nb^5+ cations were prepared.
Effect of contact time to selected metal expulsion per cents was tested using TS 5 with comlexation agent 1a. TS 5 (100 ml), spiked with known amounts of lead (Pb^2+) and mercury (Hg^2+) cations, was stirred with 1a (100 mg) for selected times followed by separation of 1a by filtration trough 0.2 μm syringe filter. Metal concentrations after 5 min, 15 min, 30 min, 1 h, 2 h, 3.5 h, 6.5 h and 29.5 h were determined by using ICP-AES analysis.

[2] = Separation of Cr(III) from Cr(VI) (Example 14); settings: pH 4.0, 1a 100 mg
Description: A water solution (110 ml) containing known amount of single cationic element or elements, typically 0.5-200 ppm, was prepared from Merch Titrisol® standard solution. After adjusting pH by using acid (e.g. HCl or HNO3) or base (e.g. NaOH) to desired initial value, sample A (10 ml) was taken followed by adding 100 mg of selected solid complexation agent. The mixture was stirred at room temperature for 24 h and sample B (10 ml) was taken. Samples A and B were filtrated separately trough 0.2 μm syringe filter and the concentration of the studied element or elements in both solution was determined by using atomic absorption spectrophotometer. The expulsion percent was determined from the concentration differences between the sample solutions A and B.
An aqueous solution (100 ml) containing 1.72 ppm of Cr(III) and 1.89 ppm of Cr(VI) was prepared from Merch Titrisol® standard solution and pH was adjusted to 4.0. Following the general procedure described earlier the mixture was treated with 1a (100 mg) and expulsion per for Cr(III) and Cr(VI) were calculated to be 97.0% and 0%, respectively.

NCCCCCCCCCCC(O)(P(=O)(O)O)P(=O)(O)O [Compound 1a, 11-Amino-1-hydroxyundecane-1,1-diyldiphosphonic acid]
Expulsion [%] ([1]; Al^3+, 5 min): 8.3%
Expulsion [%] ([1]; Al^3+, 15 min): 5.5%
Expulsion [%] ([1]; Al^3+, 30 min): 7.1%
Expulsion [%] ([1]; Al^3+, 60 min): 5.9%
Expulsion [%] ([1]; Al^3+, 120 min): 8.7%
Expulsion [%] ([1]; Al^3+, 210 min): 18.5%
Expulsion [%] ([1]; Al^3+, 390 min): 26.0%
Expulsion [%] ([1]; Al^3+, 1770 min): 27.2%
Expulsion [%] ([1]; Ca^2+, 5 min): 2.7%
Expulsion [%] ([1]; Ca^2+, 15 min): 0%
Expulsion [%] ([1]; Ca^2+, 30 min): 0%
Expulsion [%] ([1]; Ca^2+, 60 min): 0%
Expulsion [%] ([1]; Ca^2+, 120 min): 0%
Expulsion [%] ([1]; Ca^2+, 210 min): 0%
Expulsion [%] ([1]; Ca^2+, 390 min): 9.8%
Expulsion [%] ([1]; Ca^2+, 1770 min): 18.7%
Expulsion [%] ([1]; Cd^2+, 5 min): 2.9%
Expulsion [%] ([1]; Cd^2+, 15 min): 3.9%
Expulsion [%] ([1]; Cd^2+, 30 min): 5.1%
Expulsion [%] ([1]; Cd^2+, 60 min): 7.5%
Expulsion [%] ([1]; Cd^2+, 120 min): 10.9%
Expulsion [%] ([1]; Cd^2+, 210 min): 15.0%
Expulsion [%] ([1]; Cd^2+, 390 min): 28.1%
Expulsion [%] ([1]; Cd^2+, 1770 min): 36.6%
Expulsion [%] ([1]; Fe^2/3+, 5 min): 0%
Expulsion [%] ([1]; Fe^2/3+, 15 min): 0.7%
Expulsion [%] ([1]; Fe^2/3+, 30 min): 0%
Expulsion [%] ([1]; Fe^2/3+, 60 min): 3.0%
Expulsion [%] ([1]; Fe^2/3+, 120 min): 6.7%
Expulsion [%] ([1]; Fe^2/3+, 210 min): 8.9%
Expulsion [%] ([1]; Fe^2/3+, 390 min): 20.7%
Expulsion [%] ([1]; Fe^2/3+, 1770 min): 19.3%
Expulsion [%] ([1]; Hg^2+, 5 min): 59.9%
Expulsion [%] ([1]; Hg^2+, 15 min): 60.4%
Expulsion [%] ([1]; Hg^2+, 30 min): 58.5%
Expulsion [%] ([1]; Hg^2+, 60 min): 56.4%
Expulsion [%] ([1]; Hg^2+, 120 min): 57.1%
Expulsion [%] ([1]; Hg^2+, 210 min): 55.7%
Expulsion [%] ([1]; Hg^2+, 390 min): 57.0%
Expulsion [%] ([1]; Hg^2+, 1770 min): 49.6%
Expulsion [%] ([1]; Mg^2+, 5 min): 1.4%
Expulsion [%] ([1]; Mg^2+, 15 min): 1.8%
Expulsion [%] ([1]; Mg^2+, 30 min): 0.2%
Expulsion [%] ([1]; Mg^2+, 60 min): 4.4%
Expulsion [%] ([1]; Mg^2+, 120 min): 5.8%
Expulsion [%] ([1]; Mg^2+, 210 min): 6.9%
Expulsion [%] ([1]; Mg^2+, 390 min): 16.4%
Expulsion [%] ([1]; Mg^2+, 1770 min): 19.8%
Expulsion [%] ([1]; Mn^2+, 5 min): 3.4%
Expulsion [%] ([1]; Mn^2+, 15 min): 4.3%
Expulsion [%] ([1]; Mn^2+, 30 min): 4.3%
Expulsion [%] ([1]; Mn^2+, 60 min): 6.3%
Expulsion [%] ([1]; Mn^2+, 120 min): 10.5%
Expulsion [%] ([1]; Mn^2+, 210 min): 13.1%
Expulsion [%] ([1]; Mn^2+, 390 min): 27.0%
Expulsion [%] ([1]; Mn^2+, 1770 min): 29.1%
Expulsion [%] ([1]; Ni^2+, 5 min): 1.4%
Expulsion [%] ([1]; Ni^2+, 15 min): 1.8%
Expulsion [%] ([1]; Ni^2+, 30 min): 1.4%
Expulsion [%] ([1]; Ni^2+, 60 min): 4.1%
Expulsion [%] ([1]; Ni^2+, 120 min): 5.0%
Expulsion [%] ([1]; Ni^2+, 210 min): 7.8%
Expulsion [%] ([1]; Ni^2+, 390 min): 13.2%
Expulsion [%] ([1]; Ni^2+, 1770 min): 15.5%
Expulsion [%] ([1]; Pb^2+, 5 min): 28.5%
Expulsion [%] ([1]; Pb^2+, 15 min): 34.7%
Expulsion [%] ([1]; Pb^2+, 30 min): 56.3%
Expulsion [%] ([1]; Pb^2+, 60 min): 49.4%
Expulsion [%] ([1]; Pb^2+, 120 min): 65.7%
Expulsion [%] ([1]; Pb^2+, 210 min): 89.8%
Expulsion [%] ([1]; Pb^2+, 390 min): 94.6%
Expulsion [%] ([1]; Pb^2+, 1770 min): 98.1%
Expulsion [%] ([1]; Zn^2+, 5 min): 2.5%
Expulsion [%] ([1]; Zn^2+, 15 min): 3.7%
Expulsion [%] ([1]; Zn^2+, 30 min): 4.9%
Expulsion [%] ([1]; Zn^2+, 60 min): 6.5%
Expulsion [%] ([1]; Zn^2+, 120 min): 9.8%
Expulsion [%] ([1]; Zn^2+, 210 min): 13.9%
Expulsion [%] ([1]; Zn^2+, 390 min): 27.1%
Expulsion [%] ([1]; Zn^2+, 1770 min): 30.8%
expulsion per cent for Cr(III) ([2]; 1.72 ppm Cr(III) with 1.89 ppm Cr(VI)): 97.0%
expulsion per cent for Cr(VI) ([2]; 1.89 ppm Cr(VI) with 1.72 ppm Cr(III)): 0%
